# According to article PMC12073194, “Echinacoside Ameliorates UVB-Induced Skin Damage Through Selective Inhibition of the Cutaneous TRPV3 Channel” (Molecules, 2025):
# Target: T1, TRPV3 (hTRPV3, transient receptor potential vanilloid 3) (Homo sapiens, UniProt Q8NET8)
# T1 construct: hTRPV3 (NM_145068.4)
# T1 sequence (Q8NET8 1-790): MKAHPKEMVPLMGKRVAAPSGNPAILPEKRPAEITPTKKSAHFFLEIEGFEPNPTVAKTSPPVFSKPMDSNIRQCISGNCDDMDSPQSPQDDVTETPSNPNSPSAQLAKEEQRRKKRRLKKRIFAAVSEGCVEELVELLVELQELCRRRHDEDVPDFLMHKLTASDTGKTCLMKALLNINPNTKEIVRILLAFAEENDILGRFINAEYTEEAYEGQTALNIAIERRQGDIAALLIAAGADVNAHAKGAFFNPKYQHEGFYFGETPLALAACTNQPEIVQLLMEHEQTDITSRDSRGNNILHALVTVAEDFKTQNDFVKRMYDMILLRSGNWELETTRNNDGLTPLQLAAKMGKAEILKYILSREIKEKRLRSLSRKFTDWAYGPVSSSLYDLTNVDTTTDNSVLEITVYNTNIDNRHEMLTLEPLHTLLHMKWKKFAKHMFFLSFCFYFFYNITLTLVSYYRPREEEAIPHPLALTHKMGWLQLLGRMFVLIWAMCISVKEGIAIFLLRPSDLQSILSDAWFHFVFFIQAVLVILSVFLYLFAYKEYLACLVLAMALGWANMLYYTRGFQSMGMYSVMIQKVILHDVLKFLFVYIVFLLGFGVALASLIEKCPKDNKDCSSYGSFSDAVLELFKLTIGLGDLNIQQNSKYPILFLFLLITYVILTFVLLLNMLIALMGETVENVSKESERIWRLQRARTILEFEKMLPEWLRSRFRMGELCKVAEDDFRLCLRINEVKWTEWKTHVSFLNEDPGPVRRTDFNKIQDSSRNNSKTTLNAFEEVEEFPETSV
# Experiment: whole-cell and inside-out single-channel patch clamp in HEK293T cells; site-directed mutagenesis
# Format: cell-based
structure (smiles),measurement,value
C[C@@H]1O[C@@H](O[C@@H]2[C@@H](O)[C@H](OCCc3ccc(O)c(O)c3)O[C@H](CO[C@@H]3O[C@H](CO)[C@@H](O)[C@H](O)[C@H]3O)[C@H]2OC(=O)/C=C/c2ccc(O)c(O)c2)[C@H](O)[C@H](O)[C@H]1O [echinacoside],IC50,21.9 ± 1.28 µM
